The experiment deals with T1, Human α-thrombin (Homo sapiens, UniProt P00734).
T1 construct: Human α-thrombin, Sigma Chemical Co. or Hematologic Technologies; purchased Sigma Chemical Co. or Hematologic Technologies
Nature of the experiment: Test B: Determination of Thrombin Inhibition with a Chromogenic, Robotic Assay. It is filed as biochemical. As to conditions: chromogenic substrate S-2366, 40 minutes incubation at 37° C. An excerpt: The thrombin clotting time (TT) is expressed as absolute values (seconds) as well as the ratio of TT without inhibitor (TT0) to TT with inhibitor (TTi). The latter ratios (range 1-0) are plotted against the concentration of inhibitor (log transformed) and fitted to sigmoidal dose-response curves according to the equation y=a/[1+(x/IC50)^s] where: a=maximum range, i.e. 1; s=slope of the dose-response curve; and IC50=the concentration of inhibitor that doubles the clotting time. The calculations are processed on a PC using the software program GraFit Version 3, setting equation equal to: Start at 0, define end=1 (Erithacus Software, Robin Leatherbarrow, Imperial College of Science, London, UK). […]
The thrombin inhibitor potency is measured with a chromogenic substrate method, in a Plato 3300 robotic microplate processor (Rosys AG, CH-8634 Hombrechtikon, Switzerland), using 96-well, half volume microtitre plates (Costar, Cambridge, Mass., USA; Cat No 3690). Stock solutions of test substance in DMSO (72 μL), 0.1-1 mmol/L, are diluted serially 1:3 (24+48 μL) with DMSO to obtain ten different concentrations, which are analysed as samples in the assay. […] The linear absorbance increment during 40 minutes incubation at 37° C. is used for calculation of percentage inhibition for the test samples, as compared to blanks without inhibitor. […]

Usually IC50 stands for the concentration that gives 50% inhibition. The low end stands for greater potency in that assay, the high end for weaker potency in that assay. In turn, `CC1=C(CC(=O)NCc2ccc(C(=N)N)cc2)C(=O)N(NS(=O)(=O)Cc2ccccc2)CC1` [2(i), N-(4-Carbamimidoylbenzyl)-2-(4-methyl-2-oxo-1-phenylmethanesulfonylamino-1,2,5,6-tetrahydropyridin-3-yl)acetamide] had an IC50 of 240 nM.

The compound `CC1=C(CC(=O)NCc2ccc(C(=N)N)cc2)C(=O)N(NS(=O)(=O)c2cccc3ccccc23)CC1` [2(iii), N-(4-Carbamimidoylbenzyl)-2-[4-methyl-1-(naphthalene-1-sulfonylamino)-2-oxo-1,2,5,6-tetrahydropyridin-3-yl]acetamide] showed an IC50 of 25.6 nM.

For the origin of these results see patent US20070099962A1, “5,6-Dihydropyrin-2-one compounds useful as inhibitors of thrombin” (priority 2003, published 2007).
